Data taken from US20240053346A1, “FLUORESCENT DYE AND METHOD FOR DETECTING TUMOR CELLS” (NATIONAL UNIVERSITY CORPORATION EHIME UNIVERSITY, priority 2020, published 2024).
Like-named read-outs stand apart in the source and are kept apart here.

Tests used:
[1] = test system: melanoma lesion tissue of the skin; experiment: Test Example 3: staining with various SC compounds, two-photon microscopy; conditions: for imaging performance for fluorescence observation (rank): cleared melanoma lesion tissue
Procedure: (§1) The staining solution of Test Examples 1 and 2 was prepared by dissolving PK in DMSO at 1 mg/mL. Each of staining solutions of Test Example 3 and Test Example 4 was a DMSO solution containing 1 mM of an SC compound, and was diluted 100 times for use of staining.
(§2) As the skin normal part tissue, the extramammary Paget's disease lesion tissue, and the melanoma lesion tissue used in Test Examples, whole tissue sections of the tissues obtained by excision were used. A dermatologist has confirmed in advance the identification of each tissue. Also, a normal part tissue and a tumor tissue of the rectum were also prepared by whole-sectioning of the tissues obtained by excision, and a specialist has confirmed the identification of each tissue. The collection and use of the tumor tissues were approved by the Clinical Research Ethics Review Board at Ehime University Hospital (No. 1802009) and were conducted according to its study protocol.
(§3) For microscopy, a two-photon microscope AIR MP+(NIKON) was used. In the measurement, a 960 nm laser light source and a 495 nm filter were used for PK, and a 561 nm filter was used for PI. Scanning was performed to a depth of 100 μm of the sample. The three-dimensional reconstructed image is obtained by processing the obtained data with the software included.
(§4) Normal part tissue of the skin and extramammary Paget's disease lesion tissue cleared by LUCID method in the same manner as in Test Example 2 were stained with a staining solution containing PK, PC, Nile Red, or POLARIC. Each stained tissue section was observed according to the method of two-photon microscopy of Test Example 1. The images were produced by coloring a fluorescent wavelength of 492 nm or less in cyan, 500 to 550 nm in green, 560 to 593 nm in yellow, and 593 nm or more in red. Brightness and contrast of the illustrated images were appropriately corrected.
Melanoma lesion tissue of the skin cleared by the same method were similarly stained and observed with a two-photon microscope.

[2] = test system: extramammary Paget's disease lesion tissue; experiment: as above; conditions: cleared Paget's disease lesion tissue; for imaging performance for fluorescence observation (rank): judged by fluorescence intensity and contrast of staining
Procedure: as §1, §2, §3, §4

[3] = test system: normal rectal mucosal epithelium (columnar epithelium); experiment: Test Example 4: PK and Hoechst staining of rectum, two-photon microscopy; conditions: cleared by LUCID method, co-stained with Hoechst
Procedure: The staining solution of Test Examples 1 and 2 was prepared by dissolving PK in DMSO at 1 mg/mL. […]
as §2, §3
The normal part tissue and the well-differentiated adenocarcinoma lesion tissue of the rectum cleared by LUCID method in the same manner as in Test Example 2 were stained with PK and Hoechst. […]

[4] = test system: extramammary Paget's disease lesion tissue, tumor cells (Paget cells); experiment: Test Example 1: PK staining of thin sliced section, two-photon microscopy
Procedure: as §1, §2
The extramammary Paget's disease lesion tissue and the normal part tissue were embedded in paraffin and then cut out to prepare tissue sections. The preparation of the sections (thickness: 5 μm) was performed by the procedure usually performed in histopathological examination. For staining with the PK staining solution, deparaffinization was performed by a conventional method, and then staining was performed by immersion in the PK staining solution at room temperature for several days to one week. In practice, the tissues were sufficiently stained by immersion in the PK staining solution at room temperature for 2 to 3 days.
as §3

[5] = cited from earlier work
[6] = test system: well-differentiated adenocarcinoma lesion tissue of the rectum; experiment: Test Example 4: PK and Hoechst staining of rectum, two-photon microscopy; conditions: cleared by LUCID method, co-stained with Hoechst
Procedure: as §1, §2
as §3, with “included. […]” for “included.”

[7] = test system: extramammary Paget's disease lesion tissue (Paget cells); experiment: Test Example 2: PK staining of cleared three-dimensional tissue, two-photon microscopy
Procedure: as §1, §2, §3
(§5) Derived extramammary Paget's disease lesion tissue having a thickness of 500 μm and malignant melanoma lesion tissue having a thickness of 100 μm were subjected to a clearing treatment without being subjected to fixation and thinly slicing, and then stained with PK and propidium iodide (PI). Clearing treatment was performed by using LUCID method, according to the procedure described in Sawada K, Kawakami R, Shigemoto R, and Nemoto T. Eur. J. Neurosci., 2018, Vol. 47, No. 9, 1033-1042. The cleared tissue was stained with a PK staining as in Test Example 1. PI staining was performed by a method usually performed in tissue staining. As conditions for microscopy, the same conditions as in Test Example 1 were used for detection of PK signals.

[8] = test system: malignant melanoma lesion tissue (melanoma cells); experiment: as above; conditions: cleared tissue 100 μm thick, LUCID method, 495 nm
Procedure: as §1, §2, §3, §5

[9] = Measurement of photophysical properties of PC in organic solvent and phosphate buffer (absorption spectrum, fluorescence spectrum, fluorescence quantum yield); assay type: physicochemical; conditions: 20 mM phosphate buffer (pH 7.4) at 25° C.
[10] = 5 μm paraffin section, 960 nm laser, 495 nm filter

CCN(CC)c1ccc2nc3c4ccccc4c(=O)cc-3oc2c1 [Nile Red]
shift of the fluorescence wavelength due to solvatochromism ([1]; Test Example 3 stained tissue): relatively small | imaging performance for fluorescence observation (rank) [1]: followed by PK, POLARIC, and Nile Red in this order | fluorescence intensity of the raw image [2]: lower than those of PK and PC | imaging performance for fluorescence observation (rank) [2]: followed by PK, Nile Red, and POLARIC in this order

CC(=O)c1ccc2ccc3c(N4CCCCC4)ccc4ccc1c2c43 [PK, 1-Acetyl-6-piperidylpyrene]
staining of normal rectal mucosal epithelium [3]: cell membranes were positive for PK staining, cytoplasm was poorly stained | distinction of tumor cells from normal cells [4, 10]: tumor cells can be distinguished from normal cells | fluorescence signal in the parts where the tumor cells (Paget cells) exist [4, 10]: the fluorescence wavelength shifted and the signal level decreased | distribution of the dye in cells ([4]; thin sliced section): inserted into cell membranes | imaging performance for fluorescence observation (rank) [1]: followed by PK, POLARIC, and Nile Red in this order | absorption maximum wavelength ([5]; 20 mM phosphate buffer (pH 7.4) at room temperature): 407 nm | fluorescence maximum wavelength λDMSO ([5]; DMSO): 558 nm | fluorescence maximum wavelength λMet ([5]; methanol): 593 nm | fluorescence maximum wavelength λHep ([5]; n-heptane): 474 nm | fluorescence maximum wavelength ΔTol ([5]; toluene): 503 nm | staining of rectal tumor lesion [6]: cytoplasmic staining property by PK staining was high | imaging performance for fluorescence observation (rank) [2]: followed by PK, Nile Red, and POLARIC in this order | detection of tumor cells (Paget cells) ([7]; cleared tissue 500 μm thick, LUCID method, 495 nm): successfully detected even when they were scattered one by one | signals in normal cells of the epidermis, dermis, and hair follicle ([7]; normal cells within the observed lesion tissues of Test Example 2): significantly observed in all of these cells | fluorescence signal in malignant melanoma cells [8]: not observed

CCCC(=O)/C=C/c1ccc2ccc3c(N4CCCCC4)ccc4ccc1c2c43 [compound A, (E)-1-(6-(piperidin-1-yl)pyren-1-yl)hexa-1-en-3-one]
absorption maximum wavelength [9]: 421 nm | fluorescence maximum wavelength [9]: 621 nm | imaging performance for fluorescence observation (rank) [1]: best performance | imaging performance for fluorescence observation (rank) [2]: best performance
